Results as given in US20090105305A1, “Therapeutic Agents - 550” (AstraZeneca AB, priority 2006, published 2009).

Each molecule was assayed against T1, human Fatty Acid Synthase (Homo sapiens, UniProt P49327) (assay: Human FAS enzyme assay (decrease in NADPH fluorescence)). Conditions: % inhibition at a concentration of 100 micromolar.
T1 construct: made in house
Type: biochemical
Outline: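 In-house human FAS (0.4 μg) was preincubated 15 min at RT with compound and NADPH (added at 166.6 μM) in 0.1 M Tris pH 7.5, 1 mM glutathione, 0.05% BSA. Malonyl-/acetyl-CoA (500/150 μM in substrate mix) was then added for 60 min. Readout was NADPH fluorescence loss (ex 340/em 460) over a time-zero read, with IC50 from a sigmoid fit.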

T1 sequence (P49327 whole entry): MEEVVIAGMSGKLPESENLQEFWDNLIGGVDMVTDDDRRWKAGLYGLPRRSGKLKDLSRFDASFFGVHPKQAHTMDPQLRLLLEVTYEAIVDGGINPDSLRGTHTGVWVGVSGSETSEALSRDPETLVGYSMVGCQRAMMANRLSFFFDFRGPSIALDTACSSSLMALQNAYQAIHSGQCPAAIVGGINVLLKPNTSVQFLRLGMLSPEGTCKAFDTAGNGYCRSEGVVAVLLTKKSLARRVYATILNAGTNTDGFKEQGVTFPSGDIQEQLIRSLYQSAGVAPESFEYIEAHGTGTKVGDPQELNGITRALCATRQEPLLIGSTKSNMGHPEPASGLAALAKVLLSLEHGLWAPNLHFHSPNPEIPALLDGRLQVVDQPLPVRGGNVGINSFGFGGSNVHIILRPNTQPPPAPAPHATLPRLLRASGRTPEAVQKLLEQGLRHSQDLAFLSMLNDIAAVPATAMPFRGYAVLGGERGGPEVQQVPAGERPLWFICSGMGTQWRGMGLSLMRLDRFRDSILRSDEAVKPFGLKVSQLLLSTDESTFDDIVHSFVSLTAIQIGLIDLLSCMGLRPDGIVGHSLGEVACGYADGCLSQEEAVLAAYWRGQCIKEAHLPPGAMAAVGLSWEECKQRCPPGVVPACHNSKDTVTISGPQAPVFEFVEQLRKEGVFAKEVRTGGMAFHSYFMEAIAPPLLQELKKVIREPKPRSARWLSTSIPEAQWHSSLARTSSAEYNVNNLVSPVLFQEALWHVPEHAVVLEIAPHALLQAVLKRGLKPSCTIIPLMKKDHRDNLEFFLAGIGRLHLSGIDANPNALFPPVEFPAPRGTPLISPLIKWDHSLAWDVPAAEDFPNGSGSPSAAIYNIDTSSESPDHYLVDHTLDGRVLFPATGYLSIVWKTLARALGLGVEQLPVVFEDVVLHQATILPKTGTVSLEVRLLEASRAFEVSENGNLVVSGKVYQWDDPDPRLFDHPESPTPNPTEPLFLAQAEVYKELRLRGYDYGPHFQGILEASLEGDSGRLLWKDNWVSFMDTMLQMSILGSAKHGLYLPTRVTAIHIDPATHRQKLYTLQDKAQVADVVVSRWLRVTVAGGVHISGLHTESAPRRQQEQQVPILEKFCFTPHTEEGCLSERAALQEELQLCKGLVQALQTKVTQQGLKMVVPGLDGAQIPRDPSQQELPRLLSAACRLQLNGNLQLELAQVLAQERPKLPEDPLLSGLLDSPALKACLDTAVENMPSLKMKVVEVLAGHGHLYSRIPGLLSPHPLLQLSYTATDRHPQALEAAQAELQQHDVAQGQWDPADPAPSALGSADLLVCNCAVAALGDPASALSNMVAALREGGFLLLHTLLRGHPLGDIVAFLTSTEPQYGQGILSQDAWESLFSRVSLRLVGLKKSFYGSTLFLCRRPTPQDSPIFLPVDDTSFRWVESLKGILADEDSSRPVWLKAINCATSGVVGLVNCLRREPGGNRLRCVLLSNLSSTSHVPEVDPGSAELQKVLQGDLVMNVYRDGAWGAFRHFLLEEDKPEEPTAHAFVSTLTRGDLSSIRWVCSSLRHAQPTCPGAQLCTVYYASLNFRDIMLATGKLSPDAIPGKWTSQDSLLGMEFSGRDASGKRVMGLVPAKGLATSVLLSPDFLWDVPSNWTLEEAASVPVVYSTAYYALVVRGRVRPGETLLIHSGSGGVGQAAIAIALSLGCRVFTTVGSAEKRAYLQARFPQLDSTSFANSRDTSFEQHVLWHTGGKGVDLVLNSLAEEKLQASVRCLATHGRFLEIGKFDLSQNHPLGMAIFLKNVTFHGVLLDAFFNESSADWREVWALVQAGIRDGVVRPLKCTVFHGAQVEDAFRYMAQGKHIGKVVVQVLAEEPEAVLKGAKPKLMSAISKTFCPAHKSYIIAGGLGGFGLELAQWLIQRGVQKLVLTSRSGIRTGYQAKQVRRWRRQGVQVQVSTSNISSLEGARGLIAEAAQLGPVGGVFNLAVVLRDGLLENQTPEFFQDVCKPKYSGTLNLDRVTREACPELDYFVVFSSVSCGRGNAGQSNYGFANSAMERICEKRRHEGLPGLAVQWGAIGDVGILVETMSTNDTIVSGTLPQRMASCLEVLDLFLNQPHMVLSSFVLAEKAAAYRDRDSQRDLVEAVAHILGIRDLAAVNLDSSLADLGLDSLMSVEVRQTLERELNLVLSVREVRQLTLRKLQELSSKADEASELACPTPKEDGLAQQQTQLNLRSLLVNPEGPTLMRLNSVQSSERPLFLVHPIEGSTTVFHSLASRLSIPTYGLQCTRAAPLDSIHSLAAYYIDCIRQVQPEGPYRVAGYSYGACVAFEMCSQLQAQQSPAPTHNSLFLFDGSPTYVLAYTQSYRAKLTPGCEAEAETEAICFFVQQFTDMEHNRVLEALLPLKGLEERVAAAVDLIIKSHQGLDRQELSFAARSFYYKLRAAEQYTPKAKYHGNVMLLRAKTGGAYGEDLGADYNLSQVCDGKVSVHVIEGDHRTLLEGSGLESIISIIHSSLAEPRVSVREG

Row | Compound | inhibition at 100 µM [%]
1 | CCc1ccc(C(=O)N2CCC(c3ccc(C#N)cc3)CC2)cc1NS(C)(=O)=O [Example 123, N-[5-[4-(4-cyanophenyl)piperidine-1-carbonyl]-2-ethyl-phenyl]methanesulfonamide] | 85
2 | COC(=O)c1cccc(S(=O)(=O)Nc2cc(C(=O)N3CCC(c4ccc(C#N)cc4)CC3)ccc2C)c1 [Example 76, Methyl 3-[[5-[4-(4-cyanophenyl)piperidine-1-carbonyl]-2-methyl-phenyl]sulfamoyl]benzoate] | 97
3 | Cc1ccc(C(=O)N2CCC(c3ccc(C#N)cc3)CC2)cc1NS(=O)(=O)c1cn(C)nc1C [Example 139, N-[5-[4-(4-cyanophenyl)piperidine-1-carbonyl]-2-methyl-phenyl]-1,3-dimethyl-pyrazole-4-sulfonamide] | 83
4 | Cc1ccc(C(=O)N2CCC(c3ccc(C#N)cc3)CC2)cc1NS(=O)(=O)CCO [Example 109, N-[5-[4-(4-cyanophenyl)piperidine-1-carbonyl]-2-methyl-phenyl]-2-hydroxy-ethanesulfonamide] | 94
5 | Cc1cc(C)c(C(=O)N2CCC(c3ccc(C#N)cc3)CC2)cc1NS(=O)(=O)Cc1ccccc1 [Example 29, N-[5-[4-(4-cyanophenyl)piperidine-1-carbonyl]-2,4-dimethyl-phenyl]-1-phenyl-methanesulfonamide] | 93
6 | Cc1ccc(C(=O)N2CCC(c3ccc(C#N)cc3)CC2)cc1NS(=O)(=O)c1cccc(C(=O)O)c1 [Example 79, 3-[[5-[4-(4-cyanophenyl)piperidine-1-carbonyl]-2-methyl-phenyl]sulfamoyl]benzoic acid] | 95
7 | Cc1ccc(NS(=O)(=O)C2CCS(=O)(=O)C2)cc1C(=O)N1CCC(c2ccc(C#N)cc2)CC1 (stereo not shown) [Example 69, N-[3-[4-(4-cyanophenyl)piperidine-1-carbonyl]-4-methyl-phenyl]-1,1-dioxo-thiolane-3-sulfonamide] | 82
8 | C[S+]([O-])c1ccc(C(=O)N2CCC(c3ccc(C#N)cc3)CC2)cc1NS(=O)(=O)Cc1ccccc1 (stereo not shown) [Example 211, N-[5-[4-(4-cyanophenyl)piperidine-1-carbonyl]-2-methylsulfinylphenyl]-1-phenylmethanesulfonamide] | 92
9 | COc1ccc(C(=O)N2CCC(c3ccc(C#N)cc3)CC2)cc1NS(=O)(=O)Cc1ccccc1 [Example 89, N-[5-[4-(4-cyanophenyl)piperidine-1-carbonyl]-2-methoxy-phenyl]-1-phenyl-methanesulfonamide] | 78
10 | Cc1ccc(C(=O)N2CCC(c3ccc(C#N)cc3)CC2)cc1NS(=O)(=O)Cc1ccc(S(C)(=O)=O)cc1 [Example 62, N-[5-[4-(4-cyanophenyl)piperidine-1-carbonyl]-2-methyl-phenyl]-1-(4-methylsulfonylphenyl)methanesulfonamide] | 82
11 | COC(=O)NCc1ccc(C2CCN(C(=O)c3ccc(C)c(NS(C)(=O)=O)c3)CC2)cc1 [Example 239, Methyl N-[[4-[1-(3-methanesulfonamido-4-methylbenzoyl)piperidin-4-yl]phenyl]methyl]carbamate] | 89.1
12 | CNC(=O)NCc1ccc(C2CCN(C(=O)c3ccc(C)c(NS(C)(=O)=O)c3)CC2)cc1 [Example 233, 1-[[4-[1-(3-methanesulfonamido-4-methylbenzoyl)piperidin-4-yl]phenyl]methyl]-3-methylurea] | 81.8
13 | CCC(=O)NCc1ccc(C2CCN(C(=O)c3ccc(C)c(NS(C)(=O)=O)c3)CC2)cc1 [Example 225, N—[[4-[1-(3-methanesulfonamido-4-methylbenzoyl)piperidin-4-yl]phenyl]methyl]propanamide] | 89.1
14 | Cc1ccc(C(=O)N2CCC(c3ccc(C#N)cc3)CC2)cc1NS(=O)(=O)C1CCN(C(C)C)CC1 [Example 120, N-[5-[4-(4-cyanophenyl)piperidine-1-carbonyl]-2-methyl-phenyl]-1-propan-2-yl-piperidine-4-sulfonamide] | 94
15 | Cc1ccc(C2CCN(C(=O)c3ccc(C)c(NS(C)(=O)=O)c3)CC2)cc1 [Example 158, N-[2-methyl-5-[4-(4-methylphenyl)piperidine-1-carbonyl]phenyl]methanesulfonamide] | 81
16 | Cc1ccc(NS(=O)(=O)c2ccc(C#N)cc2)cc1C(=O)N1CCC(c2ccc(C#N)cc2)CC1 [Example 49, 4-cyano-N-[3-[4-(4-cyanophenyl)piperidine-1-carbonyl]-4-methyl-phenyl]benzenesulfonamide] | 83
17 | Cc1ccc(C(=O)N2CCC(c3ccc(C(=O)NC4CC4)cc3)CC2)cc1NS(C)(=O)=O [Example 184, N-cyclopropyl-4-[1-(3-methanesulfonamido-4-methylbenzoyl)piperidin-4-yl]benzamide] | 84
18 | Cc1ccc(C(=O)N2CCC(c3ccc(-c4ncon4)cc3)CC2)cc1NS(C)(=O)=O [Example 171, N-[2-methyl-5-[4-[4-(1,2,4-oxadiazol-3-yl)phenyl]piperidine-1-carbonyl]phenyl]methanesulfonamide] | 85
19 | Cc1ccc(NS(=O)(=O)CC(F)(F)F)cc1C(=O)N1CCC(c2ccc(C#N)cc2)CC1 [Example 55, N-[3-[4-(4-cyanophenyl)piperidine-1-carbonyl]-4-methyl-phenyl]-2,2,2-trifluoro-ethanesulfonamide] | 79

Same assay, conditions: compounds excluded from the claims by proviso

Row | Compound | IC50s in the range of about 0.001 μM to about 30 μM
20 | Cc1ccc(C(=O)N2CCC(O)(c3ccc(Cl)cc3)CC2)cc1NS(C)(=O)=O [N-[5-[4-(4-chlorophenyl)-4-hydroxypiperidine-1-carbonyl]-2-methylphenyl]methanesulfonamide] | do not have IC50s in the range of about 0.001 μM to about 30 μM
21 | Cc1ccc(C(=O)N2CCC(c3ccc(CC(=O)O)cc3)CC2)cc1NS(C)(=O)=O [2-[4-[1-(3-methanesulfonamido-4-methylbenzoyl)piperidin-4-yl]phenyl]acetic acid] | do not have IC50s in the range of about 0.001 μM to about 30 μM
22 | Cc1ccc(C(=O)N2CCC(O)(c3ccccc3)CC2)cc1NS(C)(=O)=O [N-[5-(4-hydroxy-4-phenylpiperidine-1-carbonyl)-2-methylphenyl]methanesulfonamide] | do not have IC50s in the range of about 0.001 μM to about 30 μM
23 | Cc1ccc(C(=O)N2CCC(c3ccc(CC(N)=O)cc3)CC2)cc1NS(C)(=O)=O [2-[4-[1-(3-methanesulfonamido-4-methylbenzoyl)piperidin-4-yl]phenyl]acetamide] | do not have IC50s in the range of about 0.001 μM to about 30 μM
24 | Cc1ccc(C(=O)N2CCC(c3ccc(C(=O)N4CCCN(C)CC4)cc3)CC2)cc1NS(C)(=O)=O [N-[2-methyl-5-[4-[4-(4-methyl1,4-diazepane-1-carbonyl)phenyl]piperidine-1-carbonyl]phenyl]methanesulfonamide] | do not have IC50s in the range of about 0.001 μM to about 30 μM

Same assay, conditions: unit inferred

Row | Compound | IC50 [nM]
25 | CNC(=O)CCc1ccc(C2CCN(C(=O)c3ccc(C)c(NS(C)(=O)=O)c3)CC2)cc1 [Example 248, 3-[4-[1-(3-methanesulfonamido-4-methylbenzoyl)piperidin-4-yl]phenyl]-N-methylpropanamide] | 405
